# Test results reported in patent publication US20260022143A1, “Cyclic Peptide Inhibitors of IL-23” (JANSSEN PHARMACEUTICA NV, priority 2022, published 2026).
# Positions of bridges follow the written chain, without caps; N, C: chain ends. Non-standard residues stand in square brackets, D forms with d. Residues, ends and D or L forms follow the SMILES beside them. *: point of attachment. Me3N+(CH2)2O(CH2)2O(CH2)2CO = C[N+](C)(C)CCOCCOCCC(=O)*; CH2CH2OCH2CH2OCH2CH2NMe3+ = C[N+](C)(C)CCOCCOCC*; Trp(7-Me) = Cc1cccc2c(C[C@H](N)C(=O)O)c[nH]c12; X28 = CCCCCCCCCCCCCCCC[N+](C)(C)CCc1cn(CC*)nn1; X30 = C[N+](C)(C)CCOCCOCCOCCOCc1cn(CC*)nn1; X73 = C[N+](C)(C)CCOCCOCCNC(=O)CCCCCCCC*; X9 = COCCOCCOCC[N+](C)(C)CCc1cn(CC*)nn1; X89 = COCCOCCOCC[N+](C)(CCOCCOCCOC)CC*; 2Nal = N[C@@H](Cc1ccc2ccccc2c1)C(=O)O; X77 = COCCN1CC[N+]2(CC1)CCN(CC*)CC2; X45 = COCC[N+](C)(C)CCc1cn(CC*)nn1; 3Pal = N[C@@H](Cc1cccnc1)C(=O)O; Lys(Me) = CNCCCC[C@H](N)C(=O)O; X69 = CN(CCOCC[N+](C)(C)C)CC*; X90 = COCCOCCOCC[N+](C)(C)CC*; Pen = CC(C)(S)[C@H](N)C(=O)O; Thp = NC1(C(=O)O)CCOCC1; X42 = O=C(O)CCCCCCCC*; Sar = CNCC(=O)O
# Assay: Exposed Polar Surface Area (EPSA)
# Format: physicochemical
# Conditions: SFC on Chirex 3014 column; sample 1 mM DMSO stock; read-out: EPSA
# Summary of the method: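 Compounds, as 1 mM DMSO stock, were injected in duplicate onto an SFC Chirex 3014 column at 35 °C and eluted with a CO2/methanol (20 mM ammonium formate) gradient. EPSA values in Å^2 were derived from retention times using a linear fit to eight calibration standards, reinjected every 20 compounds.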
row,Structure (SMILES),EPSA [A^2]
1,"CC(=O)N(C)CCCC[C@@H]1NC(=O)[C@H](Cc2c[nH]c3c(C)cccc23)NC(=O)[C@H]([C@@H](C)O)NC(=O)[C@H](CC(=O)N(C)C)NC(=O)[C@@H](NC(=O)CCOCCOCC[N+](C)(C)C)C(C)(C)SSC(C)(C)[C@@H](C(=O)N[C@@H](Cc2ccc(OCCCCCCCCC(=O)O)cc2)C(=O)N[C@@H](Cc2ccc3ccccc3c2)C(=O)NC2(C(=O)N[C@@H](CCCCN(C)C(C)=O)C(=O)N[C@@H](CC(N)=O)C(=O)N[C@@H](Cc3cccnc3)C(=O)N(C)CC(=O)N(C)C)CCOCC2)NC1=O [compound 236, cPEG3aCO-Pen(3)-N(N(Me)2)-T-7MeW-K(NMeAc)-Pen(3)-Y(C9OH)-2Nal-THP-K(NMeAc)-N-3Pya-Sar-CON(Me)2] ({Me3N+(CH2)2O(CH2)2O(CH2)2CO}-[Pen]D(NMe2)T[Trp(7-Me)][Lys(Me)](Ac)[Pen]Y(X42)[2Nal][Thp][Lys(Me)](Ac)N[3Pal][Sar]-NMe2; disulfide 1-6)",159
2,"CC(=O)N(C)CCCC[C@@H]1NC(=O)[C@H](Cc2c[nH]c3c(C)cccc23)NC(=O)[C@H]([C@@H](C)O)NC(=O)[C@H](CC(=O)N(C)C)NC(=O)[C@@H](NC(=O)CCOCCOCC[N+](C)(C)C)C(C)(C)SSC(C)(C)[C@@H](C(=O)N[C@@H](Cc2ccc(OCCN(C)CCOCC[N+](C)(C)C)cc2)C(=O)N[C@@H](Cc2ccc3ccccc3c2)C(=O)NC2(C(=O)N[C@@H](CCCCN(C)C(C)=O)C(=O)N[C@@H](CC(N)=O)C(=O)N[C@@H](Cc3cccnc3)C(=O)N(C)CC(=O)N(C)C)CCOCC2)NC1=O [compound 237, cPEG3aCO-Pen(3)-N(N(Me)2)-T-7MeW-K(NMeAc)-Pen(3)-AEF(NMePEG2a)-2Nal-THP-K(NMeAc)-N-3Pya-Sar-CON(Me)2] ({Me3N+(CH2)2O(CH2)2O(CH2)2CO}-[Pen]D(NMe2)T[Trp(7-Me)][Lys(Me)](Ac)[Pen]Y(X69)[2Nal][Thp][Lys(Me)](Ac)N[3Pal][Sar]-NMe2; disulfide 1-6)",140
3,"COCCOCCOCC[N+](C)(C)CCOc1ccc(C[C@H](NC(=O)[C@H]2NC(=O)[C@H](CCCCN(C)C(C)=O)NC(=O)[C@H](Cc3c[nH]c4c(C)cccc34)NC(=O)[C@H]([C@@H](C)O)NC(=O)[C@H](CC(=O)N(C)C)NC(=O)[C@@H](NC(=O)CCOCCOCC[N+](C)(C)C)C(C)(C)SSC2(C)C)C(=O)N[C@@H](Cc2ccc3ccccc3c2)C(=O)NC2(C(=O)N[C@@H](CCCCN(C)C(C)=O)C(=O)N[C@@H](CC(N)=O)C(=O)N[C@@H](Cc3cccnc3)C(=O)N(C)CC(=O)N(C)C)CCOCC2)cc1 [compound 239, cPEG3aCO-Pen(3)-N(N(Me)2)-T-7MeW-K(NMeAc)-pen(3)-AEF(NMe2mPEG3)-2Nal-THP-K(NMeAc)-N-3Pya-Sar-CON(Me)2] ({Me3N+(CH2)2O(CH2)2O(CH2)2CO}-[Pen]D(NMe2)T[Trp(7-Me)][Lys(Me)](Ac)[Pen]Y(X90)[2Nal][Thp][Lys(Me)](Ac)N[3Pal][Sar]-NMe2; disulfide 1-6)",138
4,"COCCOCCOCC[N+](C)(CCOCCOCCOC)CCOc1ccc(C[C@H](NC(=O)[C@H]2NC(=O)[C@H](CCCCN(C)C(C)=O)NC(=O)[C@H](Cc3c[nH]c4c(C)cccc34)NC(=O)[C@H]([C@@H](C)O)NC(=O)[C@H](CC(=O)N(C)C)NC(=O)[C@@H](NC(=O)CCOCCOCC[N+](C)(C)C)C(C)(C)SSC2(C)C)C(=O)N[C@@H](Cc2ccc3ccccc3c2)C(=O)NC2(C(=O)N[C@@H](CCCCN(C)C(C)=O)C(=O)N[C@@H](CC(N)=O)C(=O)N[C@@H](Cc3cccnc3)C(=O)N(C)CC(=O)N(C)C)CCOCC2)cc1 [compound 241, cPEG3aCO-Pen(3)-N(N(Me)2)-T-7MeW-K(NMeAc)-Pen(3)-AEF(NMeBismPEG3)-2Nal-THP-K(NMeAc)-N-3Pya-Sar-CON(Me)2] ({Me3N+(CH2)2O(CH2)2O(CH2)2CO}-[Pen]D(NMe2)T[Trp(7-Me)][Lys(Me)](Ac)[Pen]Y(X89)[2Nal][Thp][Lys(Me)](Ac)N[3Pal][Sar]-NMe2; disulfide 1-6)",135
5,"CC(=O)NCCCC[C@@H]1NC(=O)[C@H](Cc2c[nH]c3c(C)cccc23)NC(=O)[C@H]([C@@H](C)O)NC(=O)[C@H](CC(=O)N(C)C)NC(=O)[C@@H](NC(=O)CCOCCOCC[N+](C)(C)C)C(C)(C)SSC(C)(C)[C@@H](C(=O)N[C@@H](Cc2ccc(OCCOCCOCC[N+](C)(C)C)cc2)C(=O)N[C@@H](Cc2ccc3ccccc3c2)C(=O)NC2(C(=O)N[C@@H](CCCCN(C)C(C)=O)C(=O)N[C@@H](CC(N)=O)C(=O)N[C@@H](Cc3cccnc3)C(=O)N(C)CC(=O)N(C)C)CCOCC2)NC1=O [compound 243, cPEG3aCO-Pen(3)-N(N(Me)2)-T-7MeW-K(Ac)-Pen(3)-APEG3F-2Nal-THP-K(NMeAc)-N-3Pya-Sar-CON(Me)2] ({Me3N+(CH2)2O(CH2)2O(CH2)2CO}-[Pen]D(NMe2)T[Trp(7-Me)]K(Ac)[Pen]Y(CH2CH2OCH2CH2OCH2CH2NMe3+)[2Nal][Thp][Lys(Me)](Ac)N[3Pal][Sar]-NMe2; disulfide 1-6)",142
6,COCC[N+](C)(C)CCc1cn(CCOc2ccc(C[C@H](NC(=O)[C@H]3NC(=O)[C@H](CCCCNC(C)=O)NC(=O)[C@H](Cc4c[nH]c5c(C)cccc45)NC(=O)[C@H]([C@@H](C)O)NC(=O)[C@H](CC(N)=O)NC(=O)[C@@H](NC(C)=O)C(C)(C)SSC3(C)C)C(=O)N[C@@H](Cc3ccc4ccccc4c3)C(=O)NC3(C(=O)N[C@@H](CCCCNC(C)=O)C(=O)N[C@@H](CC(N)=O)C(=O)N[C@@H](Cc4cccnc4)C(=O)N(C)CC(N)=O)CCOCC3)cc2)nn1 [compound 249] (Ac-[Pen]NT[Trp(7-Me)]K(Ac)[Pen]Y(X45)[2Nal][Thp]K(Ac)N[3Pal][Sar]-NH2; disulfide 1-6 (inferred)),147
7,CC(=O)NCCCC[C@@H]1NC(=O)[C@H](Cc2c[nH]c3c(C)cccc23)NC(=O)[C@H]([C@@H](C)O)NC(=O)[C@H](CC(N)=O)NC(=O)[C@@H](NC(C)=O)C(C)(C)SSC(C)(C)[C@@H](C(=O)N[C@@H](Cc2ccc(OCCn3cc(COCCOCCOCCOCC[N+](C)(C)C)nn3)cc2)C(=O)N[C@@H](Cc2ccc3ccccc3c2)C(=O)NC2(C(=O)N[C@@H](CCCCNC(C)=O)C(=O)N[C@@H](CC(N)=O)C(=O)N[C@@H](Cc3cccnc3)C(=O)N(C)CC(N)=O)CCOCC2)NC1=O [compound 252] (Ac-[Pen]NT[Trp(7-Me)]K(Ac)[Pen]Y(X30)[2Nal][Thp]K(Ac)N[3Pal][Sar]-NH2; disulfide 1-6),148
8,"CC(=O)N(C)CCCC[C@@H]1NC(=O)[C@H](Cc2c[nH]c3c(C)cccc23)NC(=O)[C@H]([C@@H](C)O)NC(=O)[C@H](CC(=O)N(C)C)NC(=O)[C@@H](NC(=O)CCOCCOCC[N+](C)(C)C)C(C)(C)SSC(C)(C)[C@@H](C(=O)N[C@@H](Cc2ccc(OCCCCCCCCC(=O)NCCOCCOCC[N+](C)(C)C)cc2)C(=O)N[C@@H](Cc2ccc3ccccc3c2)C(=O)NC2(C(=O)N[C@@H](CCCCN(C)C(C)=O)C(=O)N[C@@H](CC(N)=O)C(=O)N[C@@H](Cc3cccnc3)C(=O)N(C)CC(=O)N(C)C)CCOCC2)NC1=O [compound 254, cPEG3aCO-Pen(3)-N(N(Me)2)-T-7MeW-K(NMeAc)-Pen(3)-YC8CO(NHPEG3a)-2Nal-THP-K(NMeAc)-N-3Pya-Sar-CON(Me)2] ({Me3N+(CH2)2O(CH2)2O(CH2)2CO}-[Pen]D(NMe2)T[Trp(7-Me)][Lys(Me)](Ac)[Pen]Y(X73)[2Nal][Thp][Lys(Me)](Ac)N[3Pal][Sar]-NMe2; disulfide 1-6)",144
9,CCCCCCCCCCCCCCCC[N+](C)(C)CCc1cn(CCOc2ccc(C[C@H](NC(=O)[C@H]3NC(=O)[C@H](CCCCNC(C)=O)NC(=O)[C@H](Cc4c[nH]c5c(C)cccc45)NC(=O)[C@H]([C@@H](C)O)NC(=O)[C@H](CC(N)=O)NC(=O)[C@@H](NC(C)=O)C(C)(C)SSC3(C)C)C(=O)N[C@@H](Cc3ccc4ccccc4c3)C(=O)NC3(C(=O)N[C@@H](CCCCNC(C)=O)C(=O)N[C@@H](CC(N)=O)C(=O)N[C@@H](Cc4cccnc4)C(=O)N(C)CC(N)=O)CCOCC3)cc2)nn1 [compound 259] (Ac-[Pen]NT[Trp(7-Me)]K(Ac)[Pen]Y(X28)[2Nal][Thp]K(Ac)N[3Pal][Sar]-NH2; disulfide 1-6),149
10,COCCOCCOCC[N+](C)(C)CCc1cn(CCOc2ccc(C[C@H](NC(=O)[C@H]3NC(=O)[C@H](CCCCNC(C)=O)NC(=O)[C@H](Cc4c[nH]c5c(C)cccc45)NC(=O)[C@H]([C@@H](C)O)NC(=O)[C@H](CC(N)=O)NC(=O)[C@@H](NC(C)=O)C(C)(C)SSC3(C)C)C(=O)N[C@@H](Cc3ccc4ccccc4c3)C(=O)NC3(C(=O)N[C@@H](CCCCNC(C)=O)C(=O)N[C@@H](CC(N)=O)C(=O)N[C@@H](Cc4cccnc4)C(=O)N(C)CC(N)=O)CCOCC3)cc2)nn1 [compound 260] (Ac-[Pen]NT[Trp(7-Me)]K(Ac)[Pen]Y(X9)[2Nal][Thp]K(Ac)N[3Pal][Sar]-NH2; disulfide 1-6),147
11,"COCCN1CC[N+]2(CC1)CCN(CCOc1ccc(C[C@H](NC(=O)[C@H]3NC(=O)[C@H](CCCCN(C)C(C)=O)NC(=O)[C@H](Cc4c[nH]c5c(C)cccc45)NC(=O)[C@H]([C@@H](C)O)NC(=O)[C@H](CC(=O)N(C)C)NC(=O)[C@@H](NC(=O)CCOCCOCC[N+](C)(C)C)C(C)(C)SSC3(C)C)C(=O)N[C@@H](Cc3ccc4ccccc4c3)C(=O)NC3(C(=O)N[C@@H](CCCCN(C)C(C)=O)C(=O)N[C@@H](CC(N)=O)C(=O)N[C@@H](Cc4cccnc4)C(=O)N(C)CC(=O)N(C)C)CCOCC3)cc1)CC2 [compound 262, cPEG3aCO-Pen(3)-N(N(Me)2)-T-7MeW-K(NMeAc)-Pen(3)-MTASF-2Nal-THP-K(NMeAc)-N-3Pya-Sar-CON(Me)2] ({Me3N+(CH2)2O(CH2)2O(CH2)2CO}-[Pen]D(NMe2)T[Trp(7-Me)][Lys(Me)](Ac)[Pen]Y(X77)[2Nal][Thp][Lys(Me)](Ac)N[3Pal][Sar]-NMe2; disulfide 1-6)",145
